The numbers were not newly measured in US20120302500A1, “USE OF SO[…] IN MENINGIOMA” (NOVARTIS AG, priority 2008, published 2012), which cites them from elsewhere.

In general, half-life refers to the time needed for the level to fall by half in the phase considered.

Starred links: 1 amine or outer side, 2 acyl side, 3 side chain; linkers in the order of their positions; H or OH if unused. Non-standard residues stand in square brackets, D forms with d. Residues, ends and D or L forms follow the SMILES beside them. Groups on a side chain read outwards from the residue. *: point of attachment. Ethylenediamine = C(CN[*:2])N[*:1]; Hyp = O=C(O)[C@@H]1C[C@@H](O)CN1; Phg = N[C@H](C(=O)O)c1ccccc1; CO = O=C([*:1])[*:2]; Bn = c1ccc(C*)cc1

The conditions of this series: in vivo.

For `NCCCC[C@@H]1NC(=O)[C@@H](Cc2c[nH]c3ccccc23)NC(=O)[C@H](c2ccccc2)NC(=O)[C@@H]2C[C@@H](OC(=O)NCCN)CN2C(=O)[C@H](Cc2ccccc2)NC(=O)[C@H](Cc2ccc(OCc3ccccc3)cc2)NC1=O` [pasireotide, cyclo[{4-(NH2—C2H4—NH—CO—O—)Pro}-Phg-DTrp-Lys-Tyr(4-Bzl)-Phe]] (cyclo([Hyp]([CO-Ethylenediamine])[Phg][dW]KY(Bn)F)), the half-life was 11 h.
